{
  "source": "paper PMC10759609",
  "about": "“A novel PDPN antagonist peptide CY12-RP2 inhibits melanoma growth via Wnt/β-catenin and modulates the immune cells” (Journal of Experimental & Clinical Cancer Research : CR, 2024)",
  "key": {"[1]": {"tested_on": "A875 cells", "experiment": "Transwell matrigel invasion, A875", "assay_type": "cell-based", "details": "transwell matrigel, 0, 5, 25 μM, 48 h", "protocol": "For invasion assay, matrigel (Corning, New York, USA) was coated on the upper surface of the upper chamber. The upper chamber was filled with DMEM medium containing 2% FBS, while the lower chamber contained a medium supplemented with 20% FBS. In brief, melanoma cells (A375 GFP, A875 GFP, A375 PDPN^−/−, and A875 PDPN^+/+ cells) were seeded in the upper chamber of the transwell plate (Corning, New York, USA) at about 5 × 10^4 cells/well with the medium as described above. For peptide functionality experiments, A375 and A875 cells were seeded in the upper chamber of the transwell plate at a density of 5 × 10^4 cells/well with various peptide concentrations (0 μM, 5 μM, 25 μM). Transwell inserts were fixed using 4% paraformaldehyde after 48 h cell invasion, and crystalline violet was used for staining. The quantities of invading cells were quantified using ImageJ software (NIH)."}, "[2]": {"tested_on": "Wnt/β-catenin signaling pathway", "experiment": "Western blot, EMT and Wnt/β-catenin pathway, melanoma cells", "assay_type": "cell-based", "details": "melanoma cells treated with peptide", "protocol": "Melanoma cells were cultured in a 60 mm dish with a complete medium and various peptide concentrations (0 μM, 5 μM, 25 μM). Protein was extracted after cells were cultured or treated for 48 h using protein lysis buffer, separated using a 10% or 15% Bis–Tris PAGE gel (Epizyme Biomedical Technology, Shanghai, China), and transferred onto a PVDF membrane (Thermo Fisher Scientific) according to standard techniques. The Western blots were imaged using Bio-rad Chemidoc MP and quantified using ImageJ software (NIH).\nFig. S4: The inhibition of cells metastasis and invasion by CY12-RP2 can be […]\n(A, B) The inhibition of CY12-RP2 on the migration capacity of melanoma cell lines was reversed by SKL2001 (A). Statistical analysis was performed to determine the migrated distance (B). The power field scale bar, 100 μm. (C, D) Effect of CY12-RP2 on the invasive ability of melanoma cell lines were reversed by SKL2001 (C). […]\n(A) TUNEL analysis of apoptosis was conducted on orthotopic xenografts tumor sections using fluorescence staining. […] (B) Fluorescence staining of Ki67 was carried out on orthotopic xenograft tumor sections.\nThe power field scale bar, 100 μm. (C) Serum His-CY12-RP2 levels of the orthotopic xenografts mice treated by various dosage of CY12-RP2 were measured by His-ELISA kit. […]\nkit. (E) Serum ALT, AST, TG, and γ-GT levels of the orthotopic xenografts model were measured by ELISA. […]"}, "[3]": {"tested_on": "PBMC", "experiment": "PBMC cytokines by ELISA", "assay_type": "cell-based, healthy donor", "details": "50 µM, 48 h", "protocol": "PBMCs (Shenzhen People's Hospital. Shenzhen, China)) from a healthy donor were isolated using a density gradient centrifugation procedure. Firstly, the immune cell proportions analysis of PBMCs was measured using flow cytometry. We then investigated the effect of CY12-RP2 on the cytokines in PBMCs using ELISA assays. Briefly, PBMCs (5 × 10^5 cells/well) were cultured in 24-well plates with RPMI1640 containing 10% FBS for 24 h, and the cells were stimulated with CY12-RP2 (50 µM) for 48 h. Afterward, supernatants were collected for subsequent assays. […] The experimental results were then observed by crystal violet staining after 48 h. The levels of major inflammatory cytokines, including TNF-α, IL-1β, IL-2, TGF-β, IFN-γ, and IL-10, were measured using an ELISA kit (Shenzhen Ziker Biological Technology, Shenzen, China). Briefly, culture supernatants of cells and serum of pulmonary metastasis mouse model were respectively collected and added to an antibody pre-coated 96-well plates, and then followed up according to the manufacturer's instructions."}, "[4]": {"tested_on": "A375 cells", "experiment": "Colony formation, A375", "assay_type": "cell-based"}, "[5]": {"tested_on": "3D melanoma spheroid (A375)", "experiment": "3D melanoma spheroid / PBMC co-culture", "assay_type": "cell-based", "details": "0, 2, 10, 50 μM, with increasing concentrations", "protocol": "Prepared melanoma cells spheroids were plated in 48-well plates. Following incubation for 3 days, the spheroids were exposed to different concentrations (0, 50, 100 and 200 μM) of CY12-RP2, and changes in spheroid diameter were detected after 5 days of treatment. Additionally, melanoma cell spheroids were treated with various concentrations of CY12-RP2 as described previously, and after 72 h, the spheroids were stained for immunofluorescence with caspase 3 primary antibody. The specific experimental procedures refer to the following immunofluorescence analysis. Additionally, we co-cultured peptide-stimulated PBMC with spheroids to determine the tumor-killing ability of activated PBMC.\nFig. 6 Influence of CY12-RP2 on the immune-mediated anti-tumor capacity of PBMC in vitro and in vivo. A The procedure of PBMC isolation from donor peripheral blood, and the ratio of different immune cells in PBMC was assayed by flow cytometry. B PBMCs were stimulated with CY12-RP2 for 48 h, and the cytokine levels in the supernatant were assayed by ELISA. […] E Brightfield and fluorescent microscopy images of A375 cells (red) co-culture with PBMC (GFP) were stimulated with various concentrations (0, 2, 10, 50 μM) of CY12-RP2. Data are presented as mean ± SD. *p < 0.05, **p < 0.01, ***p < 0.001 versus control"}},
  "note": "Peptide text beside a SMILES is read from it.",
  "data": [
    {"molecule": "CC(C)C[C@H](NC(=O)[C@H](Cc1ccc(O)cc1)NC(=O)[C@@H](N)[C@@H](C)O)C(=O)N[C@@H](CS)C(=O)N[C@H](C(=O)N[C@@H](C)C(=O)N[C@@H](CS)C(=O)N[C@@H](CC(=O)O)C(=O)N[C@@H](Cc1ccc(O)cc1)C(=O)N[C@H](C(=O)N[C@@H](Cc1c[nH]cn1)C(=O)N[C@@H](Cc1c[nH]cn1)C(=O)O)[C@@H](C)O)[C@@H](C)O", "note": "[CY12-RP2] (H-TYLCTACDYTHH-OH; N-terminus and C-terminus assumed)", "values": [
      {"measurement": "invasion", "setting": "[1]", "value": "could only be inhibited at high concentrations"},
      {"measurement": "Wnt/β-catenin pathway", "setting": "[2]", "value": "could inhibit the Wnt/β-catenin pathway"},
      {"measurement": "IFN-γ level in PBMC supernatant", "setting": "[3]", "value": "increased"},
      {"measurement": "IL-1β level in PBMC supernatant", "setting": "[3]", "value": "increased"},
      {"measurement": "IL-10 level in PBMC supernatant", "setting": "[3]", "value": "decreased"},
      {"measurement": "TGF-β level in PBMC supernatant", "setting": "[3]", "value": "decreased"},
      {"measurement": "TNF-α level in PBMC supernatant", "setting": "[3]", "value": "increased"},
      {"measurement": "colony formation", "setting": "[4]", "value": "significantly suppress the colony formation of A375 cells in a dose-dependent manner"},
      {"measurement": "tumor-killing capacity of PBMC", "setting": "[5]", "value": "increased"}
    ]}
  ]
}
